This note sets out measurements from US20230416672A1, “Rhodococcus qingshengii bacterial strain that degrades imazethapyr and stimulates crop growth” (priority 2020, published 2023).

The subject of test [1] is soft wheat (Triticum aestivum L.) variety Favorite. The test is described as follows: Growth of soft wheat in soil artificially contaminated with imazethapyr (Example 2). It is filed as in vivo. To be noted: imazethapyr 10 mg/kg soil (Viaduk VK), without bacterization, 25 days. On the procedure:
(§1) The soil in the experiment was artificially polluted with the herbicide preparation “Viaduk VK” (Active substance: imazethapyr, 100 g/L), introducing the drug with water for irrigation at a dosage, according to the instructions, to a final concentration of imazethapyr 10 mg/kg of soil. The soil was moistened to 50% of the total moisture capacity. Seeds of soft wheat (Triticum aestivum L.) varieties “Favorite” 20 pcs. were sown in 1-liter pots containing 1 kg of soil. […]
(§2) The experiment was carried out under controlled conditions: at a temperature of 24/20° C., a light regime of 14/10 h (illumination—8000 lux), day/night, respectively, maintaining soil moisture at a level of 50% of the total moisture capacity by irrigation with settled tap water, the need for which was determined by weighing vessels. […] They were dried with filter paper, the length of roots and shoots was measured, they were separated and dried to constant weight at 65° C. […] The content of imazethapyr in soil was determined as described previously (Assalin M. R., Queiroz S. C. N., Ferracini V. L., Oliveira T., Vilhena E., Mattos M. L. T. A method for determination of imazapic and imazethapyr residues in soil using an ultrasonic assisted extraction and LC-MS/MS//Bull. Environ. Contam. Toxicol.—2014.—Vol. 93.—P. 360-364) using HPLC. […]

A short description of test [2]: Imazethapyr content in soil in laboratory experiment (Example 2, HPLC). As to conditions: end of experiment (47 days), original contaminated soil 6.17. As to the method: as §1, §2

Regarding `CCc1cnc(C2=NC(C)(C(C)C)C(=O)N2)c(C(=O)O)c1` (stereo not drawn) [imazethapyr], the “growth of wheat plants in freshly contaminated soil” value in test [1] is “strong inhibition”. Also, the results for the Imazethapyr content in test [2] (soil with wheat) and in test [2] (soil without plants) were 5.90 mg/kg and 5.87 mg/kg, respectively.
